Legend:
[1] = Anti-glycation assay (L-arginine and glucose, absorbance at 420 nm); assay type: biochemical; conditions: pH 7.4, 70 ℃, 4 h, 0.1 M glucose
[2] = system: B-16 mouse melanoma cell [쥐의 멜라노마 세포(B-16 mouse melanoma cell)]; experiment: Total melanin amount in B-16 mouse melanoma cells; assay type: cell-based; conditions: 3 days; for melanin production amount: absorbance at 400 nm per 1×10^6 cells, DMSO control 0.33
[3] = system: nitric oxide (NO) production in RAW264.7 cells [RAW264.7 세포주, Nitric oxide(NO)]; experiment: NO production inhibition in LPS-stimulated RAW264.7 cells (GRIESS method); assay type: cell-based; conditions: Mus musculus, LPS 1 μg, 24 h, 540 nm, read-out: NO production inhibition rate
[4] = system: type I collagen [제1형 콜라겐(type I collagen)]; experiment: Type I collagen synthesis in human-derived fibroblasts (PICP EIA kit); assay type: cell-based; conditions: 48 h culture, n=4; for type I collagen synthesis amount: negative control 150.2; for increase rate (type I collagen synthesis): relative to untreated control
[5] = biological target: T1, elastase [엘라스테이즈(Elastase)] (Homo sapiens, UniProt P08246); experiment: Elastase activity inhibition (human leukocyte elastase, MeOSuc-Ala-Ala-Pro-Val-pNA); assay type: biochemical; conditions: for enzyme activity: slope of absorbance at 405 nm vs time, room temperature, 20 min, n=3, DMSO control 10.4
T1 construct: 엘라스테이즈(Elastase)는 사람의 백혈구 세포로부터 유래한 엘라스테이즈를 사용하였고; from tissue; host or cells: human leukocytes (사람의 백혈구 세포)
T1 sequence (P08246 30-267): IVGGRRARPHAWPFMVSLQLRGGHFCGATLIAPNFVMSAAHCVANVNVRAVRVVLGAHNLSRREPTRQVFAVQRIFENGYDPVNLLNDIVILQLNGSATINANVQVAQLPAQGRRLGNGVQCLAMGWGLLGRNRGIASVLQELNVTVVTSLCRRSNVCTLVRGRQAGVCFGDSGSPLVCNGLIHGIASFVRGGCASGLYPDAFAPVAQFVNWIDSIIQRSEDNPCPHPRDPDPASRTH

[6] = Mus musculus, 72 h, 10 ppm, relative to control, read-out: increase rate (total melanin)
[7] = pH 7.5, read-out: inhibition rate (elastase)

N=C(N)NN [Aminoguanidine, reference compound]
inhibition rate (glycation) ([1]; 55 ppm): 54.89%

C=C[C@@]1(C)CC(=O)[C@]2(O)[C@@]3(C)[C@@H](O)CCC(C)(C)[C@@H]3[C@H](O)[C@H](OC(C)=O)[C@@]2(C)O1 [Forskolin, reference compound]
melanin production amount ([2]; 10 ppm): 0.792 abs
activation at 10 ppm [2, 6]: 140%

CNC(=N)NCCC[C@H](N)C(=O)O [L-NMMA, L-NG-Monomethylarginine, reference compound]
inhibition at 10 ppm [3]: 41%

O=C1O[C@H]([C@@H](O)CO)C(O)=C1O [비타민 C, reference compound]
type I collagen synthesis amount ([4]; 52.85 ppm (52.85 ㎍/ml)): 246.8 ng/mL
increase rate (type I collagen synthesis) ([4]; 52.85 ppm (52.85 ㎍/ml)): 64.3%

COc1cc([C@H]2OC[C@H]3[C@@H]2CO[C@H]3c2ccc(OC)c(OC)c2)ccc1O [화학식1의 화합물, phillygenin]
enzyme activity ([5]; 10 ppm): 3.9
enzyme activity ([5]; 20 ppm): 3.5
inhibition at 10 ppm [5, 7]: 62.5%
inhibition at 20 ppm [5, 7]: 66.3%
inhibition rate (glycation) ([1]; 25 ppm): 32.68%
inhibition rate (glycation) ([1]; 50 ppm): 55.64%
melanin production amount ([2]; 1 ppm): 0.359 abs
melanin production amount ([2]; 10 ppm): 0.403 abs
activation at 1 ppm ([2]; Mus musculus, 72 h, 1 ppm, relative to control, read-out: increase rate (total melanin)): 8.79%
activation at 10 ppm [2, 6]: 22.1%
inhibition at 1 ppm ([3]; 1 ppm): 17.9%
inhibition at 10 ppm [3]: 20.6%
inhibition at 100 ppm ([3]; 100 ppm): 51.7%
type I collagen synthesis amount ([4]; 1 ppm): 187.6 ng/mL
increase rate (type I collagen synthesis) ([4]; 1 ppm): 24.9%
type I collagen synthesis amount ([4]; 10 ppm): 234.7 ng/mL
increase rate (type I collagen synthesis) ([4]; 10 ppm): 56.3%
